“And” between values parts separate entries of the source, which are not always exact repeats. Equal values may be shown once.
Key:
IPOHE = assay: Postemergence herbicidal evaluation; assay type: in vivo
ZEAMX [1] = assay: Postemergence herbicidal evaluation; assay type: in vivo
ORYSAT [2] = assay: Postemergence herbicidal evaluation; assay type: in vivo, Oryza sativa
SETVI [3] = assay: Postemergence herbicidal evaluation; assay type: in vivo
ORYSAT [4] = assay: Preemergence herbicidal evaluation; assay type: in vivo, Oryza sativa; set-up: scale not given here
GLXMAW [5] = assay: Postemergence herbicidal evaluation; assay type: in vivo
AMBEL [6] = assay: Postemergence herbicidal evaluation; assay type: in vivo
IPOSS [7] = assay: Postemergence herbicidal evaluation; assay type: in vivo
GLXMA [8] = assay: Preemergence herbicidal evaluation; assay type: in vivo
Experimental: The preemergence and postemergence herbicidal properties of certain compounds of the present invention are compared with certain compounds disclosed in U.S. Pat. Nos. 5,484,763 and 5,523,278. The evaluations are performed as described in Examples 185 and 186. Data in Tables V and VI are reported by the compound number given in Example 185 for the compounds of this invention or by comparative compound letter for the compounds disclosed in U.S. Pat. Nos. 5,484,763 and 5,523,278.

CHEAL [9] = assay: Postemergence herbicidal evaluation; assay type: in vivo
CASOB [10] = assay: Postemergence herbicidal evaluation; assay type: in vivo
ABUTH [11] = assay: Postemergence herbicidal evaluation; assay type: in vivo
GALAP [12] = assay: Preemergence herbicidal evaluation; assay type: in vivo; set-up: scale not given here
ZEAMX [13] = assay: Preemergence herbicidal evaluation; assay type: in vivo; set-up: scale not given here
SETVI [14] = assay: Preemergence herbicidal evaluation; assay type: in vivo; set-up: scale not given here
AMBEL [15] = assay: Preemergence herbicidal evaluation; assay type: in vivo; set-up: scale not given here
ABUTH [16] = assay: Preemergence herbicidal evaluation; assay type: in vivo; set-up: scale not given here
ECHCG [17] = assay: Preemergence herbicidal evaluation; assay type: in vivo; set-up: scale not given here
CASOB [18] = assay: Preemergence herbicidal evaluation; assay type: in vivo; set-up: scale not given here
IPOSS [19] = assay: Preemergence herbicidal evaluation; assay type: in vivo; set-up: scale not given here
GLXMAW [20] = assay: Preemergence herbicidal evaluation; assay type: in vivo; set-up: scale not given here
CHEAL [21] = assay: Preemergence herbicidal evaluation; assay type: in vivo; set-up: scale not given here
TRZAWR [22] = assay: Preemergence herbicidal evaluation; assay type: in vivo; set-up: scale not given here
ECHCG [23] = assay: Postemergence herbicidal evaluation; assay type: in vivo
GALAP [24] = assay: Postemergence herbicidal evaluation; assay type: in vivo
GLXMA [25] = assay: Postemergence herbicidal evaluation; assay type: in vivo
TRZAWR [26] = assay: Postemergence herbicidal evaluation; assay type: in vivo

## O=C1C2=C(CCCC2)C(=O)N1c1ccc2snc(-c3ccccc3)c2c1 [A]
IPOHE; 0.0157-0.0160 kg/ha
  herbicidal effect rating: 5.0
IPOHE; 0.0313-0.0320 kg/ha
  herbicidal effect rating: 5.7
IPOHE; 0.0625-0.0640 kg/ha
  herbicidal effect rating: 6.0
IPOHE; 0.1250 kg/ha
  herbicidal effect rating: 7.5
ZEAMX [1]; 0.0313-0.0320 kg/ha
  herbicidal effect rating: 4.0 and 3.4
ZEAMX [1]; 0.0625-0.0640 kg/ha
  herbicidal effect rating: 3.7
ZEAMX [1]; 0.1250 kg/ha
  herbicidal effect rating: 4.2
ZEAMX [1]; 0.2500 kg/ha
  herbicidal effect rating: 3.8
ZEAMX [1]; 0.5000 kg/ha
  herbicidal effect rating: 4.0
ORYSAT [2]; 0.0157-0.0160 kg/ha
  herbicidal effect rating: 2.0
ORYSAT [2]; 0.0313-0.0320 kg/ha
  herbicidal effect rating: 2.3 and 2.1
ORYSAT [2]; 0.0625-0.0640 kg/ha
  herbicidal effect rating: 2.6
ORYSAT [2]; 0.1250 kg/ha
  herbicidal effect rating: 2.9
ORYSAT [2]; 0.2500 kg/ha
  herbicidal effect rating: 3.6
ORYSAT [2]; 0.5000 kg/ha
  herbicidal effect rating: 4.5
SETVI [3]; 0.0157-0.0160 kg/ha
  herbicidal effect rating: 1.0 and 1.2
SETVI [3]; 0.0313-0.0320 kg/ha
  herbicidal effect rating: 1.0 and 1.6
SETVI [3]; 0.0625-0.0640 kg/ha
  herbicidal effect rating: 2.1
SETVI [3]; 0.1250 kg/ha
  herbicidal effect rating: 3.0
SETVI [3]; 0.2500 kg/ha
  herbicidal effect rating: 2.7
SETVI [3]; 0.5000 kg/ha
  herbicidal effect rating: 2.0
ORYSAT [4]; 0.0156-0.0160 kg/ha
  herbicidal effect rating: 0.0
ORYSAT [4]; 0.0620-0.0630 kg/ha
  herbicidal effect rating: 0.5
ORYSAT [4]; 0.1250 kg/ha
  herbicidal effect rating: 0.5
ORYSAT [4]; 0.2500 kg/ha
  herbicidal effect rating: 3.0
ORYSAT [4]; 0.5000 kg/ha
  herbicidal effect rating: 3.0
GLXMAW [5]; 0.0157-0.0160 kg/ha
  herbicidal effect rating: 4.0
GLXMAW [5]; 0.0313-0.0320 kg/ha
  herbicidal effect rating: 4.0
GLXMAW [5]; 0.0625-0.0640 kg/ha
  herbicidal effect rating: 4.6
GLXMAW [5]; 0.1250 kg/ha
  herbicidal effect rating: 4.6
GLXMAW [5]; 0.2500 kg/ha
  herbicidal effect rating: 4.6
GLXMAW [5]; 0.5000 kg/ha
  herbicidal effect rating: 4.5
AMBEL [6]; 0.0157-0.0160 kg/ha
  herbicidal effect rating: 7.0 and 6.0
AMBEL [6]; 0.0313-0.0320 kg/ha
  herbicidal effect rating: 9.0 and 5.6
AMBEL [6]; 0.0625-0.0640 kg/ha
  herbicidal effect rating: 6.9
AMBEL [6]; 0.1250 kg/ha
  herbicidal effect rating: 7.0
AMBEL [6]; 0.2500 kg/ha
  herbicidal effect rating: 9.0
AMBEL [6]; 0.5000 kg/ha
  herbicidal effect rating: 9.0
IPOSS [7]; 0.0157-0.0160 kg/ha
  herbicidal effect rating: 5.5 and 5.0
IPOSS [7]; 0.0313-0.0320 kg/ha
  herbicidal effect rating: 9.0 and 6.8
IPOSS [7]; 0.0625-0.0640 kg/ha
  herbicidal effect rating: 7.5
IPOSS [7]; 0.1250 kg/ha
  herbicidal effect rating: 8.4
IPOSS [7]; 0.2500 kg/ha
  herbicidal effect rating: 9.0
IPOSS [7]; 0.5000 kg/ha
  herbicidal effect rating: 9.0
GLXMA [8]; 0.0156-0.0160 kg/ha
  herbicidal effect rating: 0.0
GLXMA [8]; 0.0313-0.0320 kg/ha
  herbicidal effect rating: 0.0
CHEAL [9]; 0.0157-0.0160 kg/ha
  herbicidal effect rating: 9.0 and 5.8
CHEAL [9]; 0.0313-0.0320 kg/ha
  herbicidal effect rating: 9.0 and 6.3
CHEAL [9]; 0.0625-0.0640 kg/ha
  herbicidal effect rating: 7.1
CHEAL [9]; 0.1250 kg/ha
  herbicidal effect rating: 7.9
CHEAL [9]; 0.2500 kg/ha
  herbicidal effect rating: 9.0
CHEAL [9]; 0.5000 kg/ha
  herbicidal effect rating: 9.0
CASOB [10]; 0.0625-0.0640 kg/ha
  herbicidal effect rating: 7.9
CASOB [10]; 0.1250 kg/ha
  herbicidal effect rating: 8.9
CASOB [10]; 0.2500 kg/ha
  herbicidal effect rating: 9.0
CASOB [10]; 0.5000 kg/ha
  herbicidal effect rating: 9.0
ABUTH [11]; 0.0313-0.0320 kg/ha
  herbicidal effect rating: 9.0 and 7.8
ABUTH [11]; 0.0625-0.0640 kg/ha
  herbicidal effect rating: 8.6
ABUTH [11]; 0.1250 kg/ha
  herbicidal effect rating: 9.0
ABUTH [11]; 0.2500 kg/ha
  herbicidal effect rating: 9.0
ABUTH [11]; 0.5000 kg/ha
  herbicidal effect rating: 9.0
GALAP [12]; 0.0313-0.0320 kg/ha
  herbicidal effect rating: 5.5
GALAP [12]; 0.0620-0.0630 kg/ha
  herbicidal effect rating: 4.5
GALAP [12]; 0.1250 kg/ha
  herbicidal effect rating: 7.0
GALAP [12]; 0.2500 kg/ha
  herbicidal effect rating: 9.0
GALAP [12]; 0.5000 kg/ha
  herbicidal effect rating: 9.0
ZEAMX [13]; 0.0156-0.0160 kg/ha
  herbicidal effect rating: 0.0
ZEAMX [13]; 0.0313-0.0320 kg/ha
  herbicidal effect rating: 0.0
ZEAMX [13]; 0.0620-0.0630 kg/ha
  herbicidal effect rating: 0.0
ZEAMX [13]; 0.1250 kg/ha
  herbicidal effect rating: 0.0
ZEAMX [13]; 0.2500 kg/ha
  herbicidal effect rating: 0.0
ZEAMX [13]; 0.5000 kg/ha
  herbicidal effect rating: 0.0
SETVI [14]; 0.0156-0.0160 kg/ha
  herbicidal effect rating: 0.0
SETVI [14]; 0.0313-0.0320 kg/ha
  herbicidal effect rating: 0.0
SETVI [14]; 0.0620-0.0630 kg/ha
  herbicidal effect rating: 0.0
SETVI [14]; 0.1250 kg/ha
  herbicidal effect rating: 2.5
SETVI [14]; 0.2500 kg/ha
  herbicidal effect rating: 2.0
SETVI [14]; 0.5000 kg/ha
  herbicidal effect rating: 3.0
AMBEL [15]; 0.0156-0.0160 kg/ha
  herbicidal effect rating: 0.0
AMBEL [15]; 0.0620-0.0630 kg/ha
  herbicidal effect rating: 2.0
AMBEL [15]; 0.1250 kg/ha
  herbicidal effect rating: 3.5
AMBEL [15]; 0.2500 kg/ha
  herbicidal effect rating: 6.0
AMBEL [15]; 0.5000 kg/ha
  herbicidal effect rating: 5.0
ABUTH [16]; 0.0156-0.0160 kg/ha
  herbicidal effect rating: 0.0
ABUTH [16]; 0.0313-0.0320 kg/ha
  herbicidal effect rating: 0.0
ABUTH [16]; 0.0620-0.0630 kg/ha
  herbicidal effect rating: 0.0
ABUTH [16]; 0.1250 kg/ha
  herbicidal effect rating: 5.0
ABUTH [16]; 0.2500 kg/ha
  herbicidal effect rating: 6.0
ABUTH [16]; 0.5000 kg/ha
  herbicidal effect rating: 7.0
ECHCG [17]; 0.0156-0.0160 kg/ha
  herbicidal effect rating: 0.0
ECHCG [17]; 0.0313-0.0320 kg/ha
  herbicidal effect rating: 0.0
ECHCG [17]; 0.0620-0.0630 kg/ha
  herbicidal effect rating: 0.0
ECHCG [17]; 0.1250 kg/ha
  herbicidal effect rating: 0.0
ECHCG [17]; 0.2500 kg/ha
  herbicidal effect rating: 0.0
ECHCG [17]; 0.5000 kg/ha
  herbicidal effect rating: 0.0
CASOB [18]; 0.0156-0.0160 kg/ha
  herbicidal effect rating: 0.0
CASOB [18]; 0.0313-0.0320 kg/ha
  herbicidal effect rating: 0.0
CASOB [18]; 0.0620-0.0630 kg/ha
  herbicidal effect rating: 0.0
CASOB [18]; 0.1250 kg/ha
  herbicidal effect rating: 1.5
CASOB [18]; 0.2500 kg/ha
  herbicidal effect rating: 2.0
CASOB [18]; 0.5000 kg/ha
  herbicidal effect rating: 2.0
IPOSS [19]; 0.0156-0.0160 kg/ha
  herbicidal effect rating: 0.0
IPOSS [19]; 0.0313-0.0320 kg/ha
  herbicidal effect rating: 0.0
IPOSS [19]; 0.0620-0.0630 kg/ha
  herbicidal effect rating: 0.0
IPOSS [19]; 0.1250 kg/ha
  herbicidal effect rating: 0.0
IPOSS [19]; 0.2500 kg/ha
  herbicidal effect rating: 0.0
IPOSS [19]; 0.5000 kg/ha
  herbicidal effect rating: 2.0
GLXMAW [20]; 0.0313-0.0320 kg/ha
  herbicidal effect rating: 0.0
GLXMAW [20]; 0.0620-0.0630 kg/ha
  herbicidal effect rating: 0.0
GLXMAW [20]; 0.1250 kg/ha
  herbicidal effect rating: 0.0
GLXMAW [20]; 0.2500 kg/ha
  herbicidal effect rating: 0.0
GLXMAW [20]; 0.5000 kg/ha
  herbicidal effect rating: 0.0
CHEAL [21]; 0.0156-0.0160 kg/ha
  herbicidal effect rating: 2.0
CHEAL [21]; 0.0620-0.0630 kg/ha
  herbicidal effect rating: 2.5
CHEAL [21]; 0.1250 kg/ha
  herbicidal effect rating: 5.0
CHEAL [21]; 0.2500 kg/ha
  herbicidal effect rating: 7.0
CHEAL [21]; 0.5000 kg/ha
  herbicidal effect rating: 9.0
TRZAWR [22]; 0.0156-0.0160 kg/ha
  herbicidal effect rating: 0.0
TRZAWR [22]; 0.0313-0.0320 kg/ha
  herbicidal effect rating: 0.0
TRZAWR [22]; 0.0620-0.0630 kg/ha
  herbicidal effect rating: 0.0
TRZAWR [22]; 0.1250 kg/ha
  herbicidal effect rating: 0.0
ECHCG [23]; 0.0157-0.0160 kg/ha
  herbicidal effect rating: 1.0 and 0.5
ECHCG [23]; 0.0313-0.0320 kg/ha
  herbicidal effect rating: 1.0 and 0.6
ECHCG [23]; 0.0625-0.0640 kg/ha
  herbicidal effect rating: 1.0
ECHCG [23]; 0.1250 kg/ha
  herbicidal effect rating: 1.8
ECHCG [23]; 0.2500 kg/ha
  herbicidal effect rating: 2.7
ECHCG [23]; 0.5000 kg/ha
  herbicidal effect rating: 2.0
GALAP [24]; 0.0157-0.0160 kg/ha
  herbicidal effect rating: 5.5 and 3.8
GALAP [24]; 0.0625-0.0640 kg/ha
  herbicidal effect rating: 5.4
GALAP [24]; 0.1250 kg/ha
  herbicidal effect rating: 6.4
GALAP [24]; 0.2500 kg/ha
  herbicidal effect rating: 8.3
GALAP [24]; 0.5000 kg/ha
  herbicidal effect rating: 9.0
GLXMA [25]; 0.0157-0.0160 kg/ha
  herbicidal effect rating: 3.5
GLXMA [25]; 0.0313-0.0320 kg/ha
  herbicidal effect rating: 4.3
TRZAWR [26]; 0.0157-0.0160 kg/ha
  herbicidal effect rating: 2
TRZAWR [26]; 0.0313-0.0320 kg/ha
  herbicidal effect rating: 3.8
TRZAWR [26]; 0.0625-0.0640 kg/ha
  herbicidal effect rating: 4.0
TRZAWR [26]; 0.1250 kg/ha
  herbicidal effect rating: 4.3
